Results taken from ChEMBL document CHEMBL5346920, “Development of the "hidden" multi-target-directed ligands by AChE/BuChE for the treatment of Alzheimer's disease” (Eur J Med Chem, 2023).
The source made the active and inactive calls. No cut-off for these calls is given here.

Experiments:
BV-2 [1] = experiment: Anti-inflammatory activity against LPS-stimulated mouse BV-2 cells assessed as inhibition of LPS-induced IL-1 beta production incubated for 24 hrs in presence of LPS; type: functional, cell-based; details: dose 1-9 µM
Acetylcholinesterase [2] = target: T1, Acetylcholinesterase (Electrophorus electricus, UniProt O42275); experiment: Drug metabolism assessed as electric eel AChE-mediated 3-(4-fluorophenyl)-1-(2-hydroxyphenyl)prop-2-en-1-one formation by measuring decarbamoylation rate constant treated with 0.25U AChE for 9 mins by HPLC analysis; type: ADME; details: 0.15 h
T1 sequence (O42275 whole entry): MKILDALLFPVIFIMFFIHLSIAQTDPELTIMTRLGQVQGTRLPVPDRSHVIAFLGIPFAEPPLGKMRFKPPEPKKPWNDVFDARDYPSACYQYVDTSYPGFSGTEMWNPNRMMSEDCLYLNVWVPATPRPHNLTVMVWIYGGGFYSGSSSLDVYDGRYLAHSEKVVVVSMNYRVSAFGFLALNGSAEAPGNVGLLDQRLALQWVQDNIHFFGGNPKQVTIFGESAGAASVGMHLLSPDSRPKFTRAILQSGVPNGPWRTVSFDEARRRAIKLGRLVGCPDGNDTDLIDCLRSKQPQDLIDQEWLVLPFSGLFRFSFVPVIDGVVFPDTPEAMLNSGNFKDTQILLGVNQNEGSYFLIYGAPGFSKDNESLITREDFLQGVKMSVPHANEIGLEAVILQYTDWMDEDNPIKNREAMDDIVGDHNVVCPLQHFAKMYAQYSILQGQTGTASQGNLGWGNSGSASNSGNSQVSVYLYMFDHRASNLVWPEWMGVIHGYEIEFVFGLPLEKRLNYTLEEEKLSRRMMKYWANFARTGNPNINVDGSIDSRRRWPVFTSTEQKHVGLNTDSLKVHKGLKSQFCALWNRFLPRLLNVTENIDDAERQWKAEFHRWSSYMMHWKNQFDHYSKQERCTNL

Danio rerio [3] = species on record: Danio rerio; experiment: Antialzheimer activity against AlCl3-induced Alzheimer's disease zebra fish model assessed as total distance moved at 0.0195 ug/ml treated for 24 hrs and measured after 24 hrs under dark environment (reference value: 312 cm); type: functional; details: dose 0.0195 µg/ml; time 48 hrs
Cholinesterase [4] = target: T2, Cholinesterase (Equus caballus, UniProt P81908); experiment: Inhibition of equine serum BuChE using butyrylthiocholine chloride as substrate by Ellman's method; type: cell-free
T2 sequence (P81908 whole entry): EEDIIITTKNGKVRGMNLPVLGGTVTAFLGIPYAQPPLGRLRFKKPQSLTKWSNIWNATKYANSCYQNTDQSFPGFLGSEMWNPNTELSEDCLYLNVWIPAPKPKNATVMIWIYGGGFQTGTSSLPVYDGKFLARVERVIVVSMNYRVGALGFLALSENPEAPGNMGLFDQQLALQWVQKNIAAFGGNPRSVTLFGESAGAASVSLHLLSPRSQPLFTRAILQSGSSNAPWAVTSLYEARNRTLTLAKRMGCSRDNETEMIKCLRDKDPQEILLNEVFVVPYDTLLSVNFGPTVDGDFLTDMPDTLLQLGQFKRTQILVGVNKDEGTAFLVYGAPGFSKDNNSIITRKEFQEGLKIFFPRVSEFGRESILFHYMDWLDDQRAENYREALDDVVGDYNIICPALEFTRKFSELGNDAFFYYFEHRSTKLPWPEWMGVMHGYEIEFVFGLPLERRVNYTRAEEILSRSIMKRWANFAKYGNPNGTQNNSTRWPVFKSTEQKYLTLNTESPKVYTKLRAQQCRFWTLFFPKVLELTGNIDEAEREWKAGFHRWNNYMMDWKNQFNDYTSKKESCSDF

Danio rerio [5] = species on record: Danio rerio; experiment: Antialzheimer activity against AlCl3-induced Alzheimer's disease zebra fish model assessed as total distance moved at 0.0049 ug/ml treated for 24 hrs and measured after 24 hrs under dark environment (reference value: 312 cm); type: functional; details: dose 0.0049 µg/ml; time 48 hrs
[6] = target: Cholinesterase (Equus caballus) (UniProt P81908); experiment: Reversible inhibition of equine serum BuChE assessed as enzyme activity using butyrylthiocholine chloride as substrate measured after dilution to 0.1XIC50 for 240 mins by Ellman's method; type: cell-free; set-up: scale not given: the % may be the effect or the level left
Chain of Cholinesterase (Equus caballus) (P81908 whole entry): as above

Acetylcholinesterase [7] = target: T1, Acetylcholinesterase; experiment: Drug metabolism assessed as electric eel AChE-mediated 3-(4-fluorophenyl)-1-(2-hydroxyphenyl)prop-2-en-1-one formation treated at 150 mmol/L with 0.001U AChE and measured after 9 mins by HPLC analysis; type: ADME; details: 0.15 h
[8] = target: T3, Amine oxidase [flavin-containing] B (Homo sapiens, UniProt P27338); experiment: Inhibition of human recombinant MAO-B expressed in baculovirus-infected BTI cells using kynuramine as substrate incubated for 30 mins by fluorescence based analysis
T3 sequence (P27338 whole entry): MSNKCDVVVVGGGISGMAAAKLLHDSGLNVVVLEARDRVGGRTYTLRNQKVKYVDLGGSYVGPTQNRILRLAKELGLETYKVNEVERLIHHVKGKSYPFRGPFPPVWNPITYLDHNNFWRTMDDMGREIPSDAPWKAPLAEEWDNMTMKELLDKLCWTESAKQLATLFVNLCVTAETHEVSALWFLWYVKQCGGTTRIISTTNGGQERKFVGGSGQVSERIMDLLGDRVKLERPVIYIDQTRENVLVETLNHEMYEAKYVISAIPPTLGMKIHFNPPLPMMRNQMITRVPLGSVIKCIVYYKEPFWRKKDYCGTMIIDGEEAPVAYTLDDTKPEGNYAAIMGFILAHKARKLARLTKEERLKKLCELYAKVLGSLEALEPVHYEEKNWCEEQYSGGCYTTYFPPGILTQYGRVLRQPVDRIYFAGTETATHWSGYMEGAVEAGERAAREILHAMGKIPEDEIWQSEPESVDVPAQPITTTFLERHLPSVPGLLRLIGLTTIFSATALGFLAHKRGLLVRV

Danio rerio [9] = species on record: Danio rerio; experiment: Neuroprotective activity against AlCl3-induced Alzheimer's disease zebra fish model assessed as distance velocity at 0.0195 ug/ml treated for 24 hrs and measured after 24 hrs under dark environment (reference value: 10.4 cm/min); type: functional; details: dose 0.0195 µg/ml; time 48 hrs
Danio rerio [10] = species on record: Danio rerio; experiment: Neuroprotective activity against AlCl3-induced Alzheimer's disease zebra fish model assessed as distance velocity at 0.0049 ug/ml treated for 24 hrs and measured after 24 hrs under alternating light dark stimuli conditions (reference value: 9 cm/min); type: functional; details: dose 0.0049 µg/ml; time 48 hrs
Danio rerio [11] = species on record: Danio rerio; experiment: Antialzheimer activity against AlCl3-induced Alzheimer's disease zebra fish model assessed as distance velocity at 0.0049 ug/ml treated for 24 hrs and measured after 24 hrs under light environment (reference value: 7.7 cm/min); type: functional; details: dose 0.0049 µg/ml; time 48 hrs
PC-12 [12] = experiment: Neuroprotective activity against Amyloid beta(25 to 35)-induced cell injury in rat PC12 cells assessed as cell viability at 5 uM pretreated for 2 hrs followed by incubation with Abeta(25 to 35) for 24 hrs by CCK-8 assay (reference value: 41 to 58.6%); type: functional; details: time 26 hrs, read-out: Activity
[13] = Acute toxicity in zebra fish assessed as ratio of pericardial edema to body weight at 0.15625 to 2.5 ug/ml and measured at 120 hpf by microscopic analysis; set-up: species or system Danio rerio; details: zebrafish; dose 0.15625-2.5 µg/ml
Danio rerio [14] = species on record: Danio rerio; experiment: Neuroprotective activity against AlCl3-induced Alzheimer's disease zebra fish model assessed as distance velocity at 0.078 ug/ml treated for 24 hrs and measured after 24 hrs under alternating light dark stimuli conditions (reference value: 9 cm/min); type: functional; details: dose 0.078 µg/ml; time 48 hrs
PC-12 [15] = experiment: Neuroprotective activity against Amyloid beta(25 to 35)-induced cell injury in rat PC12 cells assessed as cell viability at 20 uM pretreated for 2 hrs followed by incubation with Abeta(25 to 35) for 24 hrs by CCK-8 assay (reference value: 41 to 58.6%); type: functional; details: time 26 hrs, read-out: Activity
[16] = target: Cholinesterase (Equus caballus) (UniProt P81908); experiment: Reversible inhibition of equine serum BuChE assessed as enzyme activity using butyrylthiocholine chloride as substrate measured after dilution to 0.1XIC50 by Ellman's method; type: cell-free; set-up: scale not given: the % may be the effect or the level left
[17] = Metal chelating activity assessed as compound-Cu2+ complex formation by measuring maximum absorption wavelength shift from 316 to 446 nm at 37.5 uM incubated for 30 mins in presence of CuCl2 by UV-Vis spectrometry
[18] = Acute toxicity in zebra fish assessed as effect on liver median fluorescence intensity at 0.3125 to 1.25 ug/ml and measured at 120 hpf by microscopic analysis; set-up: species or system Danio rerio; details: zebrafish; dose 0.3125-1.25 µg/ml
Danio rerio [19] = species on record: Danio rerio; experiment: Neuroprotective activity against AlCl3-induced Alzheimer's disease zebra fish model assessed as distance velocity at 0.0049 ug/ml treated for 24 hrs and measured after 24 hrs under dark environment (reference value: 10.4 cm/min); type: functional; details: dose 0.0049 µg/ml; time 48 hrs
Danio rerio [20] = species on record: Danio rerio; experiment: Antialzheimer activity against AlCl3-induced Alzheimer's disease zebra fish model assessed as total distance moved at 0.078 ug/ml treated for 24 hrs and measured after 24 hrs under light environment (reference value: 230 cm); type: functional; details: dose 0.078 µg/ml; time 48 hrs
[21] = Acute toxicity in zebra fish assessed as maximum non-lethal dose; set-up: species or system Danio rerio; details: zebrafish
PC-12 [22] = experiment: Cytotoxicity against rat PC-12 cells assessed as cell viability at 40 uM by CCK-8 assay; type: toxicity, cell-based; details: pc-12, 40 µM
Cholinesterase [23] = target: T2, Cholinesterase; experiment: Drug metabolism assessed as equine serum BuChE-mediated 3-(4-fluorophenyl)-1-(2-hydroxyphenyl)prop-2-en-1-one formation treated at 150 mmol/L with 0.25U BuChE and measured after 6 secs by HPLC analysis; type: ADME, cell-free; details: horse, 6 s, time 6 sec
BV-2 [24] = experiment: Cytotoxicity against mouse BV-2 cells assessed as reduction in cell viability at 10 uM by CCK8 assay; type: toxicity, cell-based; details: bv-2, 10 µM
Homo sapiens = species on record: Homo sapiens; experiment: Selectivity index, ratio of IC50 for inhibition of human recombinant MAO-A expressed in baculovirus-infected BTI cells to IC50 for inhibition of human recombinant MAO-B expressed in baculovirus-infected BTI cells
Cholinesterase [25] = target: T2, Cholinesterase; experiment: Drug metabolism assessed as equine serum BuChE-mediated 3-(4-fluorophenyl)-1-(2-hydroxyphenyl)prop-2-en-1-one formation with 0.25U BuChE for 9 mins by HPLC analysis; type: ADME, cell-free; details: horse, 0.15 h

CCN(C)C(=O)Oc1ccccc1C(=O)/C=C/c1ccc(F)cc1
Activity (BV-2 [1]): Dose-Dependent Effect
K (Acetylcholinesterase [2]): 5.2 M⁻¹ s⁻¹
Activity (Danio rerio [3]): 577 cm
IC50 (Cholinesterase [4]): 12.4 µM
Activity (Danio rerio [5]): 391 cm
Activity [6]: 93.3%
Drug metabolism (Acetylcholinesterase [7]): 5.56 mmol/L
IC50 [8]: 1.9 µM
Activity (Danio rerio [9]): 19.2 cm/min
Activity (Danio rerio [10]): 12.7 cm/min
Activity (Danio rerio [11]): 12.4 cm/min
viability at 5 µM (PC-12 [12]): 70.9%
Activity [13]: Non-Toxic
Activity (Danio rerio [14]): 12.7 cm/min
viability at 20 µM (PC-12 [15]): 79.7%
Activity [16]: 52.6%
Activity [17]: inactive
Activity [18]: Non-Toxic
Activity (Danio rerio [19]): 13 cm/min
Activity (Danio rerio [20]): 226 cm
Activity [21]: 2.5 µg/mL
Activity (PC-12 [22]): Non-Toxic
Drug metabolism (Cholinesterase [23]): 1.51 mmol/L
Activity (BV-2 [24]): Non-Toxic
Ratio IC50 (Homo sapiens): 20.1
Km (Cholinesterase [25]): 113 µM
